# Laboratory results from ChEMBL document CHEMBL1148159, “An analysis of phakellin and oroidin structures stimulated by further study of an Agelas sponge” (J Nat Prod, 2004).
# Target: T1, Polyunsaturated fatty acid lipoxygenase ALOX12 (Homo sapiens, UniProt P18054)
# T1 sequence (P18054 whole entry): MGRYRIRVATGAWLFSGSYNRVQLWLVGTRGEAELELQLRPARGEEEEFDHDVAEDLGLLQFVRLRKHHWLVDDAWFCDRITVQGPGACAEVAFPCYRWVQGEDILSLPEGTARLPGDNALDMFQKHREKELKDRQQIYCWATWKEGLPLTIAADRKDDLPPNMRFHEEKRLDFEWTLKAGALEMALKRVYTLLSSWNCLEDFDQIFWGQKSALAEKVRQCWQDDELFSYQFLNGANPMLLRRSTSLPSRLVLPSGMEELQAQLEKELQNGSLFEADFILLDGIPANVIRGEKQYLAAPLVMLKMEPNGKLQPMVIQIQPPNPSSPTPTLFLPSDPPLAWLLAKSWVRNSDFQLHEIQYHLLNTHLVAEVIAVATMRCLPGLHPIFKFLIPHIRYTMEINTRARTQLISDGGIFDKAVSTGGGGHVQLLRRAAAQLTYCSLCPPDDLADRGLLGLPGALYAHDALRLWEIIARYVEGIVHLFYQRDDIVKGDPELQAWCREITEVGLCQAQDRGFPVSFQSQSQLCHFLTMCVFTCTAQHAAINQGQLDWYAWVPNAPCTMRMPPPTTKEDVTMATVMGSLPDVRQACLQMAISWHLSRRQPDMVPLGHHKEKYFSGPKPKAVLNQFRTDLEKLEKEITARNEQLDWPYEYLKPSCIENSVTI
# Assay: Inhibition of human 12-lipoxygenase
smiles,measurement,value
CN1C(N)=N[C@]23CCCN2C(=O)c2cc(Br)c(Br)n2[C@H]13,IC50,10.7 µM
